From patent publication US7186672B2, “Fungicidal mixtures” (BASF Aktiengesellschaft, priority 2001, dated 2007)

Test system: Erysiphe [syn. Blumeria] graminis forma specialis tritici
Test: Protective activity against mildew of wheat (potted wheat seedlings, greenhouse)
Assay type: in vivo
Conditions: wheat cv. Kanzler, 7 days
Protocol: The active compounds, separately or together, were formulated as a 10% emulsion in a mixture of 63% by weight of cyclohexanone and 27% by weight of emulsifier, and diluted with water to the desired concentration.
Evaluation was carried out by determining the infected leaf areas in percent. These percentages were converted into efficacies. The efficacy (W) was calculated as follows using Abbot's formula: […] • α corresponds to the fungal infection of the treated plants in % and • β corresponds to the fungal infection of the untreated (control) plants in %
An efficacy of 0 means that the infection level of the treated plants corresponds to that of the untreated control plants; an efficacy of 100 means that the treated plants were not infected.
The expected efficacies of the mixtures of the active compounds were determined using Colby's formula [R. S. Colby, Weeds 15, 20–22 (1967)] and compared with the observed efficacies. Colby's formula: E=x+y−x·y/100 • E expected efficacy, expressed in % of the untreated control, when using the mixture of the active compounds A and B at the concentrations a and b • x efficacy, expressed in % of the untreated control, when using active compound A at a concentration of a • y efficacy, expressed in % of the untreated control, when using active compound B at a concentration of b.
Protective Activity Against Mildew of Wheat Caused by Erysiphe [syn. Blumeria] graminis forma specialis tritici
Leaves of potted wheat seedlings of the cultivar “Kanzler” were sprayed to runoff point with an aqueous preparation of active compound which had been prepared from a stock solution made of 10% of active compound, 85% of cyclohexanone and 5% of emulsifier and, 24 hours after the spray coating had dried on, dusted with spores of mildew of wheat (Erysiphe [syn. Blumeria] graminis forma specialis. tritici). The test plants were then placed in a greenhouse at 20–24° C. and 60–90% relative atmospheric humidity. After 7 days, the extent of the mildew development was determined visually in % infection of the total leaf area.
The visually determined percentages of infected leaf area were converted into efficacies as % of the untreated control. An efficacy of 0 means that the infection level of the treated plants corresponds to that of the untreated control; an efficacy of 100 means 0% infection. The expected efficacies of the combinations of active compounds were determined using Colby's formula (Colby, S. R. (Calculating synergistic and antagonistic responses of herbicide Combinations”, Weeds, 15, pp. 20–22, 1967) and compared with the observed efficacies.

[1] = 0.6 ppm active compound in the spray liquor
[2] = 1.25 ppm active compound in the spray liquor

Compound | Efficacy in % of the untreated control [1] | Efficacy in % of the untreated control [2] | Efficacy in % of the untreated control (2.5 ppm active compound in the spray liquor) | Efficacy in % of the untreated control (0.3 ppm active compound in the spray liquor)
pyraclostrobin [II-6] | 36% | 47% | 57% | –
Fc1ccc([C@]2(Cn3cncn3)O[C@H]2c2ccccc2Cl)cc1 (racemic) [III.a, (2RS,3SR)-1-[3-(2-chlorophenyl)-2-(4-fluorophenyl)-oxiran-2-ylmethyl]-1H-1,2,4-triazole] | 4% | 4% | – | 4%
